Results published in patent US10023551B2, “Glutathione-cleavable prodrug and methods of use thereof” (GEORGETOWN UNIVERSITY, priority 2015, dated 2018).
Where two headings read alike, the source gives them in different places.

Assays:
[1] = test system: tubulin polymerization; assay: Immunofluorescence staining of tubulin in TNBC cells; type: cell-based; conditions: 50 nM, MDA-MB-231
Procedure: To determine the biological effect of YK-5-252, its mechanism of action was determined through immunofluorescence staining.

[2] = test system: MCF10A; assay: Inhibition of cell proliferation in normal cells (MCF10A); type: cell-based
Procedure: (§1) To evaluate the toxicity of YK-5-252 in cells, the inhibition of cell proliferation was measured in normal cells (MCF10A) and TNBC cells (MDA-MB-231). […] This lack of selectivity can be attributed to the toxicity of YK-5-252.

[3] = test system: MDA-MB-231; assay: Inhibition of cell proliferation in TNBC cells (MDA-MB-231); type: cell-based
Procedure: as §1

[4] = Fluorescence properties and activation via GSH cleavage; type: physicochemical; conditions: for NIR fluorescence emission: without GSH, excitation of 492 nm
Procedure: FIG. 11 contains emission spectra of compounds described herein.
The fluorescence properties and ability to be activated via GSH cleavage of YK-5-252 were evaluated. DCM-NH2 has a NIR fluorescence emission at 650 nm with an excitation of 492 nm (FIG. 11, panel a). […] This can be due to the loss of electron donating ability of the amine group when attached to the linker. To ascertain the stability of YK-5-252 toward GSH, fluorescence was monitored in the presence of GSH.

[5] = test system: MDA-MB-231 versus MCF10A; assay: Live cell imaging by confocal microscopy; type: cell-based; conditions: 1 micromolar, 1 hour
Procedure: FIG. 12, panel (a) contains a confocal microscopy image of MDA-MB-231 cells (triple negative breast cancer cells) treated with YK-5-252 (1 micromolar) for 1 hour. Panel (b) contains a nuclear staining image of the cells with Hoesht dye. Panel (c) contains a merged image of panels (a) and (b). Panel (d) contains a confocal microscopy image of MCF10A (normal breast cells) treated with YK-5-252 (1 micromolar) for 1 hour. Panel (e) contains a nuclear stained image of the cells with Hoescht dye. Panel (f) contains a merged image of panels (d) and (e).
To test the ability of YK-5-252 to selectively release CA-4 in cancer cells, the presence of DCM was monitored through confocal microscopy. […] Also this experiment confirms the utility of YK-5-252 to monitor drug delivery and release in vivo.

[6] = test system: MDA-MB-231; assay: FACS analysis of cell population containing released DCM-NH2, TNBC cells; type: cell-based; conditions: treated 48 hours
Procedure: (§2) To further investigate the in vivo activation of YK-5-252, fluorescence-activated cell sorting (FACS) was used. Cells were treated with YK-5-252 for 48 hours. After treatment, FACS analysis was conducted to determine how much of the cell population has DCM-NH2 present. […] HPLC analysis confirmed that CA-4 release is concurrent with the release of DCM-NH2 in a traceless manner (FIG. 14, panels (a-d)). The difference in prodrug cleavage in cancer cells versus normal cells is due to the higher levels of GSH produced in cancer cells.

[7] = test system: MCF-7 and MCF-10A cell lines; assay: In vitro cytotoxicity assay; type: cell-based; conditions: FIGS. 7 and 8
From the text: FIG. 7 contains plots for use in calculating the IC50 values for YK-5-252 and CA-4 in a MCF-7 cell line.
FIG. 8 contains plots for use in calculating the IC50 values for YK-5-252 and CA-4 in a MCF-10A cell line.
YK-5-252, the designed drug with linked disulfide bond described above, can be cleaved by intracellular glutathione (GSH). Cancer cells have a much higher GSH concentration than normal cells; therefore, this GSH-cleavable prodrug holds promising therapeutic efficacy. Near-infrared photons can deeply penetrate the skin and tissue with minimal damage. […] Due to its NIR fluorescent property, the compound also offers an excellent ability for tracking drug release in vivo.

[8] = HPLC analysis of cleavage by glutathione; type: physicochemical; conditions: YK-5-252 200 μM; GSH 50 mM
Procedure: FIG. 14 contains HPLC traces. Panel (a) is a trace of YK-5-252 (200 μM). Panel (b) is a trace of YK-5-252 (200 μM) and glutathione (GSH; 50 mM). Panel (c) is a trace of CA-4 (200 μM). Panel (d) is a trace of DCM (200 μM). […] After treatment with GSH (Panel (b)), the YK-5-252 peak at 10.5 minutes disappeared while two new peaks at 6.8 and 8.6 minutes appears which corresponds to the release of CA-4 and DCM-NH2, respectively (Panels (c) and (d)).
as §2

[9] = test system: MCF10A; assay: FACS analysis of cell population containing released DCM-NH2, normal cells; type: cell-based; conditions: treated 48 hours
Procedure: as §2

| Compound | disruption of tubulin polymerization ([1]; 1 hour) | GI50 ([2]; MCF10A normal breast cells, read-out: GI50 (Table 1)) | GI50 ([2]; normal cells (MCF10A), read-out: GI50) | GI50 ([3]; MDA-MB-231 TNBC cells, after 72 hours of treatment, read-out: GI50 (Table 1)) | GI50 ([3]; TNBC cells (MDA-MB-231), read-out: GI50) | NIR fluorescence emission [4] | fluorescence in TNBC cells versus normal breast cells [5] | cells containing DCM-NH2 [6] | fluorescence emission in the presence of GSH ([4]; GSH 250 mM, pH 8, DMSO/PBS 50/50) | toxicity compared with parent drug [7] | prodrug HPLC peak after treatment with GSH [8] | cells containing DCM-NH2 (the fluorophore) [9] | disruption of tubulin polymerization ([1]; 6 hours) | GI50 ([2]; Homo sapiens, MCF-10A, MCF10A normal breast cells, read-out: GI50 (Table 1)) | GI50 ([2]; Homo sapiens, MCF-10A, normal cells (MCF10A), read-out: GI50) | GI50 ([3]; Homo sapiens, MDA-MB-231 TNBC cells, after 72 hours of treatment, read-out: GI50 (Table 1)) | GI50 ([3]; Homo sapiens, TNBC cells (MDA-MB-231), read-out: GI50) |
| --- | --- | --- | --- | --- | --- | --- | --- | --- | --- | --- | --- | --- | --- | --- | --- | --- | --- |
| COc1ccc(/C=C\c2cc(OC)c(OC)c(OC)c2)cc1O [CA-4, combretastatin A-4, reference compound] | completely inhibited tubulin polymerization | < 0.001 nM | < 0.001 nM | 2.81 nM | 28.1 nM |  |  |  |  |  |  |  |  |  |  |  |  |
| N#CC(C#N)=C1C=C(/C=C/c2ccc(N)cc2)Oc2ccccc21 [DCM-NH2, (E)-2-(2-(4-aminostyryl)-4H-chromen-4-ylidene)malononitrile] |  |  |  |  |  | 650 nm |  |  |  |  |  |  |  |  |  |  |  |
| COc1ccc(/C=C\c2cc(OC)c(OC)c(OC)c2)cc1OC(=O)OCCSSCCOC(=O)Nc1ccc(/C=C/C2=CC(=C(C#N)C#N)c3ccccc3O2)cc1 [YK-5-252] | did not cause disruption of tubulin polymerization |  |  |  |  | no NIR emission | higher quantities | 72% | 650 nm | much less toxic than its linked parent drug | disappeared | about 5% | began to disrupt tubulin polymerization | 19.2 nM | ~19.2 nM | 40.3 nM | 40.3 nM |
